“Also recorded” adds a separate entry of the source. Where two headings read alike, the source gives them in different places. Marks after values point to notes of the source that are not given here.
Tests used:
[1] = test system: Estrogen Receptor; test: Estrogen receptor assay; type: cell-based
[2] = test system: Type 2 GD patient-derived cells (L444P/L444P genotype); test: GPN-induced lysosomal calcium release assay in Type 2 GD patient-derived cells; type: cell-based, human; conditions: for Emax: Homo sapiens, read-out: Lysosomal Ca+2 Assay Emax, GD patient-derived cells, percent activation of basal GPN-induced calcium response measured in the absence of compound

Row | Compound | activity in lysosomal calcium release assay (in words) ([2]; GD patient-derived cells) | estrogen receptor functional activity (in words) ([1]; 10 μM) | also measured
1 | CC/C(=C(\c1ccccc1)c1ccc(OCCN(C)C)cc1)c1ccccc1 [Compound 1, tamoxifen, reference compound] | partially restores lysosomal calcium in GD patient-derived cells | – | Estrogen Receptor % Activity @ 10 μM (inhibition) [1]: 100%^††; estrogen receptor functional activity (in words) [1]: antagonist activity
2 | CCC(Cc1ccc(OCCN(C)C)cc1)c1ccccc1 (centres unmarked) [Compound 5] | somewhat more potent than and equally efficacious as tamoxifen | – | –
3 | CCC(C(=O)c1ccc(OCCN(C)C)cc1)c1ccccc1 (centres unmarked) [Compound 17] | little effect on lysosomal calcium release | – | –
4 | CCCC(C(=O)c1ccc(OCCN(C)C)cc1)c1ccccc1 (centres unmarked) [Compound 18] | little effect on lysosomal calcium release | – | –
5 | CC(C)C(C(=O)c1ccc(OCCN(C)C)cc1)c1ccccc1 (centres unmarked) [Compound 19] | – | – | Emax [2]: 54 to 60%
6 | CCCC(CCC)(C(=O)c1ccc(OCCN(C)C)cc1)c1ccccc1 [Compound 20] | – | – | Emax [2]: 54 to 60%
7 | CCCCC(C(=O)c1ccc(OCCN(C)C)cc1)c1ccccc1 (centres unmarked) [Compound 21] | little effect on lysosomal calcium release; also recorded: no activity | – | –
8 | CC(C)CC(C(=O)c1ccc(OCCN(C)C)cc1)c1ccccc1 (centres unmarked) [Compound 22] | – | – | potency relative to tamoxifen in calcium release assay ([2]; GD patient-derived cells, fold more potent than tamoxifen): 10 fold
9 | CC(C)CCC(C(=O)c1ccc(OCCN(C)C)cc1)c1ccccc1 (centres unmarked) [Compound 23] | – | partial agonist activity | efficacy relative to tamoxifen in calcium release assay ([2]; GD patient-derived cells, percent more efficacious than tamoxifen): roughly 30%
10 | CCCCCCC(C(=O)c1ccc(OCCN(C)C)cc1)c1ccccc1 (centres unmarked) [Compound 24] | little effect on lysosomal calcium release | partial agonist activity | –
11 | CCCCC(C(=O)c1ccc(OCCN(C)C)cc1)c1ccccc1CC (centres unmarked) [Compound 26] | – | antagonist rather than an agonist | –
12 | CCCCC(C(=O)c1ccc(OCCN(C)C)cc1)c1ccccc1C(C)C (centres unmarked) [Compound 28] | – | – | EC50 ([2]; read-out: Lysosomal Ca+2 Assay EC50, GD patient-derived cells, GPN-induced calcium release): 1480 nM
13 | CC(C)CC(C(=O)c1ccc(OCCN(C)C)cc1)c1ccccc1C1CC1 (centres unmarked) [Compound 31] | – | devoid of estrogenic activity; also recorded: lack of any estrogenic activity | –

— article PMC7569734 (Bioorganic & medicinal chemistry letters, 2019)
